Measured values taken from patent US9624502B2, “Methods of controlling plant seed and organ size” (PLANT BIOSCIENCE LIMITED, priority 2007, dated 2017).
Where a SMILES comes first, the peptide text is derived from it. The star is where a group is joined. Cbz = O=C(OCc1ccccc1)*

Assays:
DA1 gene = DA1 gene expression after phytohormone treatment, quantitative RT-PCR; assay type: in vivo, Arabidopsis thaliana
From the text: (§1) (A) DA1 gene structure, showing the mutated sites of da1-1, sod1-1, sod1-2, and sod1-3 alleles. The start codon (ATG) and the stop codon (TGA) are indicated. Closed boxes indicate the coding sequence and lines between boxes indicate introns. T-DNA insertion sites (da1-ko1, da1-ko2 and da1-ko3) in DA1 gene are shown. (B to G) DA1 promoter activity monitored by pDA1::GUS transgene expression. GUS staining in seedlings (B and C), an embryo (D), roots (E), and petals (F and G). (H and I) The flowers of Col-0 (H) and da1-ko1dar1-1 double mutant (I). (J) Siliques of Col-0 (left) and da1-ko1dar1-1 double mutant (right). (K) Petal area of Col-0, da1-ko1, dar1-1, da1-ko1dar1-1 double mutants. […] 7 d-old WT seedlings were treated with 10 μm ABA for 2, 4, 6, 18 and 30 hours. (M and N) Wild type Col-0 and da1-1 seeds were grown on MS medium with 2 μm ABA under constant light conditions. […] Scale bars: 1 mm (B, H, I, M, and N), 50 μm (C and E), 0.5 mm (C and J), 0.1 mm (F and G), 0.5 cm (0).
(§2) Relatively high levels of GUS activity were detected in proliferating tissues (FIG. 3c-f). In addition, the DA1 promoter is also active in roots (FIG. 3b, c). Given the effects of hormones on organ growth, we tested whether any major classes of phytohormones (abscisic acid, jasmonic acid, ethylene, auxin, cytokinin, gibberellin, brassinosteroids and glucose) could influence transcription of DA1 gene. […]

[1] = tested on: wild type Col-0 seedlings; assay: Seedling growth on MS medium with ABA, wild type; assay type: in vivo, Arabidopsis thaliana; details: 4 d-old seedlings transferred to MS medium with 5 μm ABA for 3 weeks
From the text: as §1

da1-1 mutant seedlings = assay: Seedling establishment and growth on MS medium with ABA, da1-1 mutant; assay type: in vivo, Arabidopsis thaliana
From the text: as §1, §2

proteasome = assay: Stability of DA1 protein in cell-free Arabidopsis protein extracts with ATP, Western analysis; assay type: biochemical; details: GST-DA1 incubated with Arabidopsis protein extracts and ATP; Western with DA1 antibody
Description: This is supported by the observation that detection of DA1 protein with a good specific antibody in plant extracts is very difficult. We therefore tested the stability of DA1 protein in Arabidopsis using DA1 protein expressed in E. coli and cell-free protein extracts from Arabidopsis. Full length DA1 protein expressed and purified as an N-terminal GST fusion protein, was incubated with Arabidopsis protein extracts and ATP, and subjected to Western analysis using a specific DA1 antibody. […] The UIM motifs of DA1 are predicted, based on knowledge of UIM function in animal cells, to be involved in ubiqutination. It may be that DA1 is ubiquitinated and targeted for degradation as part of the mechanism of growth control.

Row | Structure (SMILES) | expression of DA1 (DA1 gene; 7 d-old WT seedlings treated with 10 μm ABA for 2, 4, 6, 18 and 30 hours, quantitative RT-PCR) | expression level of the DA1 gene (transcription) after phytohormone treatment (DA1 gene; major classes of phytohormones tested) | growth of wild type Col-0 seedlings [1] | growth of da1-1 mutant seedlings (da1-1 mutant seedlings; 4 d-old seedlings transferred to MS medium with 5 μm ABA for 3 weeks) | seedling establishment of da1-1 mutant (da1-1 mutant seedlings; seeds grown on MS medium with 2 μm ABA under constant light) | effect on degradation of DA1 protein (proteasome)
1 | CC1=CC(=O)CC(C)(C)[C@@]1(O)/C=C/C(C)=C\C(=O)O [ABA, abscisic acid] | slowly induced | induced slowly | inhibit the growth | continue to grow | ABA-insensitive seedling establishment | –
2 | CC(C)C[C@@H](C=O)NC(=O)[C@H](CC(C)C)NC(=O)[C@H](CC(C)C)NC(=O)OCc1ccccc1 [MG132] (Cbz-Leu-Leu-Leu-aldehyde) | – | – | – | – | – | abolish this degradation
